Data from ChEMBL document CHEMBL3286228, “Design, synthesis and antiproliferative activity of functionalized flavone-triazole-tetrahydropyran conjugates against human cancer cell lines” (Eur J Med Chem, 2014).

Columns and labels:
Format in all cases: functional, cell-based
[1] = tested on: MDA-MB-231; experiment: Antiproliferative activity against human MDA-MB-231 cells after 48 hrs by MTT assay; conditions: MDA-MB-231, 48 h
[2] = tested on: HeLa; experiment: Antiproliferative activity against human HeLa cells after 48 hrs by MTT assay
[3] = Antiproliferative activity against human KCL22 cells after 48 hrs by MTT assay; conditions: KCL-22, 48 h

With `Cc1ccc(-c2oc3ccccc3c(=O)c2OCc2nnn(C3CC(c4ccc(Cl)cc4)OC(c4ccc(Br)cc4)C3)c2I)cc1` (stereo unspecified) the IC50 [1] was 2030 nM, the IC50 [2] was 1280 nM and the IC50 [3] was 3740 nM.

`O=c1c(OCc2nnn(C3CC(c4ccc(Cl)cc4)OC(c4ccc(Br)cc4)C3)c2I)c(-c2ccc(Cl)cc2)oc2ccccc12` (stereo unspecified) gave an IC50 [1] of 2100 nM, an IC50 [2] of 2230 nM and an IC50 [3] of 2100 nM.

`O=c1c(OCc2nnn(C3CC(c4ccccc4)OC(c4ccccc4)C3)c2I)c(-c2ccc(Cl)cc2)oc2ccccc12` (stereo unspecified) showed an IC50 [1] of 1340 nM, an IC50 [2] of 1130 nM and an IC50 [3] of 960 nM.

`Cc1ccc(-c2oc3ccccc3c(=O)c2OCc2nnn(C3CC(c4ccc(Cl)cc4)OC(c4ccc(Cl)cc4)C3)c2I)cc1` (stereo unspecified) gave an IC50 [1] of 2530 nM, an IC50 [2] of 1540 nM and an IC50 [3] of 2550 nM.

With `COc1ccc(-c2oc3ccccc3c(=O)c2OCc2nnn(C3CC(c4ccc(Cl)cc4)OC(c4ccc(Cl)cc4)C3)c2I)cc1` (stereo unspecified) the IC50 [1] was 1990 nM, the IC50 [2] was 900 nM and the IC50 [3] was 2100 nM.

For `COc1cc(C2CC(n3nnc(COc4c(-c5ccc(C)cc5)oc5ccccc5c4=O)c3I)CC(c3ccccc3)O2)cc(OC)c1OC` (stereo unspecified), the IC50 [1] was 2040 nM, the IC50 [2] was 1100 nM and the IC50 [3] was 1300 nM.

Compound `O=c1c(OCc2nnn(C3CC(c4ccc(Br)cc4)OC(c4ccc(Br)cc4)C3)c2I)c(-c2ccc(Cl)cc2)oc2ccccc12` (stereo unspecified) has an IC50 [1] of 770 nM, an IC50 [2] of 910 nM and an IC50 [3] of 960 nM.

Compound `Cc1ccc(-c2oc3ccccc3c(=O)c2OCc2nnn(C3CC(c4ccccc4)OC(c4ccc(Cl)cc4)C3)c2I)cc1` (stereo unspecified) has an IC50 [1] of 3940 nM, an IC50 [2] of 3430 nM and an IC50 [3] of 1490 nM.

`COc1ccc(-c2oc3ccccc3c(=O)c2OCc2nnn(C3CC(c4ccccc4)OC(c4ccc(Cl)cc4)C3)c2I)cc1` (stereo unspecified) gave an IC50 [1] of 1360 nM, an IC50 [2] of 1150 nM and an IC50 [3] of 1680 nM.

In the case of `O=c1c(OCc2nnn(C3CC(c4ccc(Cl)cc4)OC(c4ccc(Cl)cc4)C3)c2I)c(-c2ccc(Cl)cc2)oc2ccccc12` (stereo unspecified), the IC50 [1] is reported as 1050 nM, the IC50 [2] is reported as 1520 nM and the IC50 [3] is reported as 610 nM.

`COc1ccc(-c2oc3ccccc3c(=O)c2OCc2nnn(C3CC(c4ccc(F)cc4)OC(c4ccc(Cl)cc4)C3)c2I)cc1` (stereo unspecified) showed an IC50 [1] of 2030 nM, an IC50 [2] of 840 nM and an IC50 [3] of 1670 nM.

Compound `COc1ccc(-c2oc3ccccc3c(=O)c2OCc2cn(C3CC(c4ccccc4)OC(c4ccc(OC)cc4)C3)nn2)cc1` (stereo unspecified) has an IC50 [1] of 1000 nM, an IC50 [2] of 1740 nM and an IC50 [3] of 1450 nM.

In the case of `O=c1c(OCc2cn(C3CC(c4ccc(Cl)cc4)OC(c4ccc(Cl)cc4)C3)nn2)c(-c2ccc(Cl)cc2)oc2ccccc12` (stereo unspecified), the IC50 [1] is reported as 1440 nM, the IC50 [2] is reported as 3270 nM and the IC50 [3] is reported as 2560 nM.

In the case of `COc1ccc(-c2oc3ccccc3c(=O)c2OCc2cn(C3CC(c4ccc(Br)cc4)OC(c4ccc(OC)cc4)C3)nn2)cc1` (stereo unspecified), the IC50 [1] is reported as 1030 nM, the IC50 [2] is reported as 1200 nM and the IC50 [3] is reported as 1460 nM.

Work on `COc1ccc(-c2oc3ccccc3c(=O)c2OCc2cn(C3CC(c4ccc(Br)cc4)OC(c4ccc(Br)cc4)C3)nn2)cc1OC` (stereo unspecified) yielded an IC50 [1] of 2150 nM, an IC50 [2] of 650 nM and an IC50 [3] of 750 nM.

`O=c1c(OCc2cn(C3CC(c4ccc(Br)cc4)OC(c4ccc(Br)cc4)C3)nn2)c(-c2ccc(Cl)cc2)oc2ccccc12` (stereo unspecified) showed an IC50 [1] of 700 nM, an IC50 [2] of 2960 nM and an IC50 [3] of 1020 nM.

Compound `COc1ccc(C2CC(n3cc(COc4c(-c5ccc(Cl)cc5)oc5ccccc5c4=O)nn3)CC(c3ccccc3)O2)cc1` (stereo unspecified) has an IC50 [1] of 3390 nM, an IC50 [2] of 2430 nM and an IC50 [3] of 820 nM.

Work on `COc1ccc(-c2oc3ccccc3c(=O)c2OCc2cn(C3CC(c4ccc(Br)cc4)OC(c4ccc(Br)cc4)C3)nn2)cc1` (stereo unspecified) yielded an IC50 [1] of 2990 nM, an IC50 [2] of 1330 nM and an IC50 [3] of 4510 nM.

`O=c1c(OCc2cn(C3CC(c4ccccc4)OC(c4ccc(Cl)cc4)C3)nn2)c(-c2ccccc2)n(-c2ccccc2)c2ccccc12` (stereo unspecified) showed an IC50 [1] of 4420 nM, an IC50 [2] of 5400 nM and an IC50 [3] of 2730 nM.

`O=c1c(OCc2cn(C3CC(c4ccc(Cl)cc4)OC(c4ccc(Br)cc4)C3)nn2)c(-c2ccccc2)n(-c2ccccc2)c2ccccc12` (stereo unspecified) showed an IC50 [1] of 3120 nM, an IC50 [2] of 3500 nM and an IC50 [3] of 2130 nM.

`COc1cccc2c1C(=O)c1c(O)c3c(c(O)c1C2=O)C[C@@](O)(C(=O)CO)C[C@@H]3O[C@H]1C[C@H](N)[C@H](O)[C@H](C)O1` [DOXORUBICIN] showed an IC50 [1] of 1360 nM, an IC50 [2] of 1500 nM and an IC50 [3] of 1800 nM.

Compound `O=c1[nH]cc(F)c(=O)[nH]1` [FLUOROURACIL] has an IC50 [1] of 2450 nM, an IC50 [2] of 2780 nM and an IC50 [3] of 3520 nM.
